Experimental data taken from US7705023B2, “Indoles useful in the treatment of inflammation” (Biolipox AB, priority 2005, dated 2010).

Target: T1, human mPGES-1 (Homo sapiens, UniProt O14684)
T1 construct: made in house; host or cells: E. coli
T1 sequence (O14684 1-152): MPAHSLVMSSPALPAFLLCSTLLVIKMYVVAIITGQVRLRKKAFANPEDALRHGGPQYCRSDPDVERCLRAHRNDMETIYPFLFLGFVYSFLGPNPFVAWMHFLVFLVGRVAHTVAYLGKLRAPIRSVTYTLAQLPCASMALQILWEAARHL
Experiment: mPGES-1 biological test (conversion of PGH2 to PGE2, HPLC analysis)
Type: biochemical
Conditions: human mPGES-1 expressed in E. coli, membrane fraction; 25 min preincubation with inhibitor, 60 s with PGH2, room temperature; read-out: concentration at which 50% inhibition of mPGES-1 was observed
Protocol: In the assay human mPGES-1 catalyses the reaction where the substrate PGH2 is converted to PGE2. mPGES-1 is expressed in E. coli and the membrane fraction is dissolved in 20 mM NaPi-buffer pH 8.0 and stored at −80° C. In the assay human mPGES-1 is dissolved in 0.1 M KPi-buffer pH 7.35 with 2.5 mM glutathione. The stop solution consists of H2O/MeCN (7/3), containing FeCl2 (25 mM) and HCl (0.15 M). The assay is performed at room temperature in 96-well plates. Analysis of the amount of PGE2 is performed with reversed phase HPLC (Waters 2795 equipped with a 3.9×150 mm C18 column). The mobile phase consists of H2O/MeCN (7/3), containing TFA (0.056%), and absorbance is measured at 195-nm with a Waters 2487 UV-detector.
The following is added chronologically to each well: • 1. 100 μL human mPGES-1 in KPi-buffer with glutathione. Total protein concentration: 0.02 mg/mL. • 2. 1 μL inhibitor in DMSO. Incubation of the plate at room temperature for 25 minutes. • 3. 4 μL of a 0.25 mM PGH2, solution. Incubation of the plate at room temperature for 60 seconds. • 4. 100 μL stop solution. • 180 μL per sample is analyzed with HPLC.

Compound	IC50 [nM]
CC(C)(C)c1ccc(-c2ccc3c(c2)cc(C(=O)O)n3-c2ccc(C3CCCCC3)cc2)cc1 [Example 64, 5-(4-tert-Butylphenyl)-1-(4-cyclohexylphenyl)-1H-indole-2-carboxylic acid]	170
CC(C)Oc1ccc(-n2c(C(=O)O)cc3cc(-c4ccc(OC(C)C)nc4)ccc32)cc1 [Example 9]	610
CC(C)Oc1ccc(-n2c(C(=O)O)cc3cc(-c4ccc(C(C)(C)C)cc4)ccc32)cc1 [Example 1, 5-(4-tert-Butylphenyl)-1-(4-isopropoxphenyl)-indole-2-carboxylic acid]	62
O=C(O)c1c(Cl)c2cc(-c3ccc(C(F)(F)F)cn3)ccc2n1-c1ccc(OC2CCCC2)nc1 [Example 36, 3-Chloro-1-(6-cyclopentoxypyrid-3-yl)-5-(5-trifluoromethylpyrid-2-yl)-1H-indole-2-carboxylic acid]	1100
CC(C)Oc1ccc(-c2ccc3c(c2)c(Cl)c(C(=O)O)n3-c2ccc(OC(C)C)nc2)cc1 [Example 33, 3-Chloro-5-(4-isopropoxyphenyl)-1-(6-isopropoxypyrid-3-yl)indole-2-carboxylic acid]	390
